# From patent US20140308733A1, “METHOD FOR INDUCING GERMINATION OF SPORE FORMING BACTERIUM” (CALPIS CO., LTD., priority 2011, published 2014)
# Assays:
# [1] = tested on: Bacillus subtilis C-3102 (FERM BP-1096); assay: Influence of the concentration of germination inducer on turbidity change (Example 2); format: cell-based; details: for turbidity (630 nm): 37° C., 150 rpm
# Method: Next, 500 μL aliquots of bacterial suspension of Bacillus subtilis C-3102 (FERM BP-1096) used in Example 1 were mixed with 500 μL of ferulic acid, or vanillic acid solutions described above, and the mixtures were adjusted to ferulic acid (10 to 600 ppm), or vanillic acid (10 to 1800 ppm) concentrations set forth in Table 2. The concentrations of ferulic acid at the reaction initiation were 10, 100, 300, and 600 ppm, and the concentrations of vanillic acid at the reaction initiation were 10, 100, 300, 600, 1200, and 1800 ppm.
# As same as Example 1, defining the time point of mixing the bacterial suspension with the solution of ferulic acid, or vanillic acid as the reaction initiation (0 min), and continuing shaking (150 rpm) at 37° C., the absorbance (630 nm) was measured at 10, 20, 30, 40, 50, 60, 90, 120, and 180 min after the reaction initiation.
# [2] = tested on: Bacillus subtilis C-3102 (FERM BP-1096); assay: Germination induction by ferulic acid, vanillic acid or p-coumaric acid at 300 ppm, turbidity change (Example 3); format: cell-based; details: for turbidity (630 nm): 37° C., 150 rpm
# Method: In each 500 mL of distilled water heated to 70° C. was added 0.3 g of ferulic acid, vanillic acid, or p-coumaric acid. After dissolving with stirring using a stirring rod with a propeller, filtration sterilization (0.45 μm filter) was conducted to prepare each 600 ppm-solution.
# Next, 500 μL aliquots of bacterial suspension of Bacillus subtilis C-3102 (FERM BP-1096) prepared by a similar method as in Example 1 were mixed with 500 μL of each of the ferulic acid, vanillic acid, and p-coumaric acid solutions, and the mixtures were adjusted to 300 ppm of ferulic acid, vanillic acid, or p-coumaric acid concentration. Defining the time point of mixing as the reaction initiation (0 min), and continuing shaking (150 rpm) at 37° C., the turbidity (630 nm) was measured at 10, 20, 30, 40, 50, 60, 90, 120, and 180 min after the reaction initiation.
# C-3102 strain = assay: Long time culture of spore suspension with inducer, turbidity up to 24 hours (proliferation check, Example 4); format: cell-based, Bacillus subtilis; details: 500 μL spore suspension + 500 μL of 600 ppm solution
# Method: This Example is an experiment to examine whether proliferation is recognizable or not, when ferulic acid or vanillic acid is mixed with a spore suspension of the C-3102 strain and cultured for a long time period.
# The C-3102 strain was cultured on a nutrient plate at 37° C. for 3 days, and thereafter bacterial cells were collected by a bacteria spreader and a spore suspension was prepared similarly as in Example 1 (OD 630=1.0). After mixing 500 μL of the C-3102 spore suspension with 500 μL of a 600 ppm-ferulic acid solution, or a 600 ppm-vanillic acid solution, change in the turbidity (630 nm) up to 24 hours was examined.
smiles,measurement,setting,value
"COc1cc(C(=O)O)ccc1O [Vanillic acid, vanillic acid]",turbidity (630 nm),"[1]; vanillic acid 10 ppm, 0 min after reaction initiation",0.590
same,turbidity (630 nm),"[1]; vanillic acid 10 ppm, 10 min after reaction initiation",0.558
same,turbidity (630 nm),"[1]; vanillic acid 10 ppm, 20 min after reaction initiation",0.548
same,turbidity (630 nm),"[1]; vanillic acid 10 ppm, 30 min after reaction initiation",0.539
same,turbidity (630 nm),"[1]; vanillic acid 10 ppm, 40 min after reaction initiation",0.527
same,turbidity (630 nm),"[1]; vanillic acid 10 ppm, 50 min after reaction initiation",0.514
same,turbidity (630 nm),"[1]; vanillic acid 10 ppm, 60 min after reaction initiation",0.497
same,turbidity (630 nm),"[1]; vanillic acid 10 ppm, 90 min after reaction initiation",0.472
same,turbidity (630 nm),"[1]; vanillic acid 10 ppm, 120 min after reaction initiation",0.437
same,turbidity (630 nm),"[1]; vanillic acid 10 ppm, 180 min after reaction initiation",0.338
same,turbidity (630 nm),"[1]; vanillic acid 100 ppm, 0 min after reaction initiation",0.584
same,turbidity (630 nm),"[1]; vanillic acid 100 ppm, 10 min after reaction initiation",0.557
same,turbidity (630 nm),"[1]; vanillic acid 100 ppm, 20 min after reaction initiation",0.553
same,turbidity (630 nm),"[1]; vanillic acid 100 ppm, 30 min after reaction initiation",0.537
same,turbidity (630 nm),"[1]; vanillic acid 100 ppm, 40 min after reaction initiation",0.526
same,turbidity (630 nm),"[1]; vanillic acid 100 ppm, 50 min after reaction initiation",0.501
same,turbidity (630 nm),"[1]; vanillic acid 100 ppm, 60 min after reaction initiation",0.491
same,turbidity (630 nm),"[1]; vanillic acid 100 ppm, 90 min after reaction initiation",0.470
same,turbidity (630 nm),"[1]; vanillic acid 100 ppm, 120 min after reaction initiation",0.433
same,turbidity (630 nm),"[1]; vanillic acid 100 ppm, 180 min after reaction initiation",0.315
same,turbidity (630 nm),"[1]; vanillic acid 300 ppm, 0 min after reaction initiation",0.572
same,turbidity (630 nm),"[1]; vanillic acid 300 ppm, 10 min after reaction initiation",0.555
same,turbidity (630 nm),"[1]; vanillic acid 300 ppm, 20 min after reaction initiation",0.543
same,turbidity (630 nm),"[1]; vanillic acid 300 ppm, 30 min after reaction initiation",0.538
same,turbidity (630 nm),"[1]; vanillic acid 300 ppm, 40 min after reaction initiation",0.526
same,turbidity (630 nm),"[1]; vanillic acid 300 ppm, 50 min after reaction initiation",0.507
same,turbidity (630 nm),"[1]; vanillic acid 300 ppm, 60 min after reaction initiation",0.501
same,turbidity (630 nm),"[1]; vanillic acid 300 ppm, 90 min after reaction initiation",0.452
same,turbidity (630 nm),"[1]; vanillic acid 300 ppm, 120 min after reaction initiation",0.381
same,turbidity (630 nm),"[1]; vanillic acid 300 ppm, 180 min after reaction initiation",0.235
same,turbidity (630 nm),"[1]; vanillic acid 600 ppm, 0 min after reaction initiation",0.566
same,turbidity (630 nm),"[1]; vanillic acid 600 ppm, 10 min after reaction initiation",0.568
same,turbidity (630 nm),"[1]; vanillic acid 600 ppm, 20 min after reaction initiation",0.561
same,turbidity (630 nm),"[1]; vanillic acid 600 ppm, 30 min after reaction initiation",0.540
same,turbidity (630 nm),"[1]; vanillic acid 600 ppm, 40 min after reaction initiation",0.512
same,turbidity (630 nm),"[1]; vanillic acid 600 ppm, 50 min after reaction initiation",0.499
same,turbidity (630 nm),"[1]; vanillic acid 600 ppm, 60 min after reaction initiation",0.488
same,turbidity (630 nm),"[1]; vanillic acid 600 ppm, 90 min after reaction initiation",0.447
same,turbidity (630 nm),"[1]; vanillic acid 600 ppm, 120 min after reaction initiation",0.390
same,turbidity (630 nm),"[1]; vanillic acid 600 ppm, 180 min after reaction initiation",0.262
same,turbidity (630 nm),"[1]; vanillic acid 1200 ppm, 0 min after reaction initiation",0.567
same,turbidity (630 nm),"[1]; vanillic acid 1200 ppm, 10 min after reaction initiation",0.559
same,turbidity (630 nm),"[1]; vanillic acid 1200 ppm, 20 min after reaction initiation",0.551
same,turbidity (630 nm),"[1]; vanillic acid 1200 ppm, 30 min after reaction initiation",0.548
same,turbidity (630 nm),"[1]; vanillic acid 1200 ppm, 40 min after reaction initiation",0.520
same,turbidity (630 nm),"[1]; vanillic acid 1200 ppm, 50 min after reaction initiation",0.509
same,turbidity (630 nm),"[1]; vanillic acid 1200 ppm, 60 min after reaction initiation",0.496
same,turbidity (630 nm),"[1]; vanillic acid 1200 ppm, 90 min after reaction initiation",0.474
same,turbidity (630 nm),"[1]; vanillic acid 1200 ppm, 120 min after reaction initiation",0.456
same,turbidity (630 nm),"[1]; vanillic acid 1200 ppm, 180 min after reaction initiation",0.419
same,turbidity (630 nm),"[1]; vanillic acid 1800 ppm, 0 min after reaction initiation",0.579
same,turbidity (630 nm),"[1]; vanillic acid 1800 ppm, 10 min after reaction initiation",0.562
same,turbidity (630 nm),"[1]; vanillic acid 1800 ppm, 20 min after reaction initiation",0.549
same,turbidity (630 nm),"[1]; vanillic acid 1800 ppm, 30 min after reaction initiation",0.538
same,turbidity (630 nm),"[1]; vanillic acid 1800 ppm, 40 min after reaction initiation",0.519
same,turbidity (630 nm),"[1]; vanillic acid 1800 ppm, 50 min after reaction initiation",0.510
same,turbidity (630 nm),"[1]; vanillic acid 1800 ppm, 60 min after reaction initiation",0.498
same,turbidity (630 nm),"[1]; vanillic acid 1800 ppm, 90 min after reaction initiation",0.472
same,turbidity (630 nm),"[1]; vanillic acid 1800 ppm, 120 min after reaction initiation",0.453
same,turbidity (630 nm),"[1]; vanillic acid 1800 ppm, 180 min after reaction initiation",0.420
same,germination induction versus concentration,[1]; vanillic acid of 10 to 1800 ppm,germination was inducted at any concentration to the same extent
same,germination confirmed by turbidity decrease,[2],"decreased, thereby to confirm germination"
same,turbidity (630 nm),[2]; 0 min after reaction initiation,0.542
same,turbidity (630 nm),[2]; 10 min after reaction initiation,0.525
same,turbidity (630 nm),[2]; 20 min after reaction initiation,0.506
same,turbidity (630 nm),[2]; 30 min after reaction initiation,0.485
same,turbidity (630 nm),[2]; 40 min after reaction initiation,0.467
same,turbidity (630 nm),[2]; 50 min after reaction initiation,0.450
same,turbidity (630 nm),[2]; 60 min after reaction initiation,0.409
same,turbidity (630 nm),[2]; 90 min after reaction initiation,0.379
same,turbidity (630 nm),[2]; 120 min after reaction initiation,0.356
same,turbidity (630 nm),[2]; 180 min after reaction initiation,0.282
same,turbidity (630 nm),C-3102 strain; reaction time 0 hr,0.575
same,turbidity (630 nm),C-3102 strain; reaction time 0.5 hr,0.540
same,turbidity (630 nm),C-3102 strain; reaction time 1 hr,0.481
same,turbidity (630 nm),C-3102 strain; reaction time 1.5 hr,0.426
same,turbidity (630 nm),C-3102 strain; reaction time 2 hr,0.380
same,turbidity (630 nm),C-3102 strain; reaction time 3 hr,0.316
same,turbidity (630 nm),C-3102 strain; reaction time 24 hr,0.060
